This note sets out measurements from patent US20140357655A1, “SPIROINDOLINE DERIVATIVES AS GONADOTROPIN- RELEASING HORMONE RECEPTOR ANTAGONISTS” (Bayer Intellectual Property GmbH, priority 2012, published 2014).

The assay addresses T1, human GnRH receptor (Homo sapiens, UniProt P30968).
T1 sequence (P30968 1-328): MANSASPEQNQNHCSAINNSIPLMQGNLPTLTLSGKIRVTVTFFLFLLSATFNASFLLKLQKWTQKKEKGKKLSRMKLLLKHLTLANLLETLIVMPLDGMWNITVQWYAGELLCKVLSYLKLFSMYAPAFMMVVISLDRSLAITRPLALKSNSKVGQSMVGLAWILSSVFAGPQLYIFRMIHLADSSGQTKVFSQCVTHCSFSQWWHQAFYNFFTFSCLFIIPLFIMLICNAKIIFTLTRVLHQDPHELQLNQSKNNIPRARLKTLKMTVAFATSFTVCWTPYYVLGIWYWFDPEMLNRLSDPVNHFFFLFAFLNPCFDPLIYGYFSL
Briefly: IP-One HTRF assay with buserelin (at EC80) stimulation. Format: cell-based. The note with it: CHO cells stably expressing human GnRH receptor, read-out: Potency in IP-One HTRF assay, given as IC50. In a few lines: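 Ten-point duplicate titrations (20 μM to 1 nM) were fitted by 4-parameter model to normalized 665/620 nm HTRF ratios, 0% = no compound, 100% = no agonist. Assay measured IP1 accumulation in human GnRH-R CHO cells stimulated 1 h at 37° C with EC80 buserelin, then lysed 1 h at 22° C.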

Molecules are shown by their SMILES. Some results are limits rather than exact numbers.

The IC50 is the concentration that inhibits the measured activity by half. With `CN(C)C(=NS(=O)(=O)c1cccc(NC(=O)c2ccc3c(c2)C2(CCS(=O)(=O)CC2)C(C2CC2)N3S(=O)(=O)c2ccc(F)cc2)c1)N(C)C` (single isomer, unassigned) [Example 64.1, N-(3-{[bis(dimethylamino)methylidene]sulfamoyl}phenyl)-2-cyclopropyl-1-[(4-fluorophenyl)sulfonyl]-1,2,2′,3′,5′,6′-hexahydrospiro[indole-3,4′-thiopyran]-5-carboxamide 1′,1′-dioxide], the IC50 was found to be 4.6 nM.

As for `CN(C)C(=NS(=O)(=O)c1cccc(NC(=O)c2ccc3c(c2)C2(CCS(=O)(=O)CC2)C(C2CC2)N3S(=O)(=O)c2ccc(F)cc2)c1)N(C)C` (single isomer, unassigned) [Example 64.2, N-(3-{[bis(dimethylamino)methylidene]sulfamoyl}phenyl)-2-cyclopropyl-1-[(4-fluorophenyl)sulfonyl]-1,2,2′,3′,5′,6′-hexahydrospiro[indole-3,4′-thiopyran]-5-carboxamide 1′,1′-dioxide], the IC50 was found to be 66 nM.

`O=C(NCc1ccccc1C(F)F)c1ccc2c(c1)C1(CCS(=O)(=O)CC1)C(C1CC1)N2S(=O)(=O)c1ccc(F)cc1` (single isomer, unassigned) [Example 68.2, 2-cyclopropyl-N-[2-(difluoromethyl)benzyl]-1-[(4-fluorophenyl)sulfonyl]-1,2,2′,3′,5′,6′-hexahydrospiro[indole-3,4′-thiopyran]-5-carboxamide 1′,1′-dioxide]: the IC50 came to 143 nM.

For `N#Cc1ccc(S(=O)(=O)N2c3ccc(C(=O)NCc4ncccc4Cl)cc3C3(CCS(=O)(=O)CC3)C2C2CC2)cc1` (single isomer, unassigned) [Example 70.1, N-[(3-chloropyridin-2-yl)methyl]-1-[(4-cyanophenyl)sulfonyl]-2-cyclopropyl-1,2,2′,3′,5′,6′-hexahydrospiro[indole-3,4′-thiopyran]-5-carboxamide 1′,1′-dioxide], the IC50 was 33 nM.

Turning to `N#Cc1ccc(S(=O)(=O)N2c3ccc(C(=O)NCc4ncccc4Cl)cc3C3(CCS(=O)(=O)CC3)C2C2CC2)cc1` (single isomer, unassigned) [Example 70.2, N-[(3-chloropyridin-2-yl)methyl]-1-[(4-cyanophenyl)sulfonyl]-2-cyclopropyl-1,2,2′,3′,5′,6′-hexahydrospiro[indole-3,4′-thiopyran]-5-carboxamide 1′,1′-dioxide], the IC50 was 202 nM.

In the case of `N#Cc1ccc(S(=O)(=O)N2c3ccc(C(=O)Nc4cncc(Cl)c4)cc3C3(CCS(=O)(=O)CC3)C2C2CC2)cc1` (single isomer, unassigned) [Example 71.1, N-(5-chloropyridin-3-yl)-1-[(4-cyanophenyl)sulfonyl]-2-cyclopropyl-1,2,2′,3′,5′,6′-hexahydrospiro[indole-3,4′-thiopyran]-5-carboxamide 1′,1′-dioxide], the IC50 amounted to 49 nM.

As for `N#Cc1ccc(S(=O)(=O)N2c3ccc(C(=O)Nc4cncc(Cl)c4)cc3C3(CCS(=O)(=O)CC3)C2C2CC2)cc1` (single isomer, unassigned) [Example 71.2, N-(5-chloropyridin-3-yl)-1-[(4-cyanophenyl)sulfonyl]-2-cyclopropyl-1,2,2′,3′,5′,6′-hexahydrospiro[indole-3,4′-thiopyran]-5-carboxamide 1′,1′-dioxide], the IC50 turned out to be 1630 nM.

On to `N#Cc1ccc(S(=O)(=O)N2c3ccc(C(=O)NCc4ccccc4C(F)(F)F)cc3C3(CCS(=O)(=O)CC3)C2C2CC2)cc1` (single isomer, unassigned) [Example 72.1, 1-[(4-cyanophenyl)sulfonyl]-2-cyclopropyl-N-[2-(trifluoromethyl)benzyl]-1,2,2′,3′,5′,6′-hexahydrospiro[indole-3,4′-thiopyran]-5-carboxamide 1′,1′-dioxide], for which the IC50 stood at 11 nM.

As to `N#Cc1ccc(S(=O)(=O)N2c3ccc(C(=O)NCc4ccccc4C(F)(F)F)cc3C3(CCS(=O)(=O)CC3)C2C2CC2)cc1` (single isomer, unassigned) [Example 72.2, 1-[(4-cyanophenyl)sulfonyl]-2-cyclopropyl-N-[2-(trifluoromethyl)benzyl]-1,2,2′,3′,5′,6′-hexahydrospiro[indole-3,4′-thiopyran]-5-carboxamide 1′,1′-dioxide], the IC50 was determined as 403 nM.

On to `N#Cc1cccc(S(=O)(=O)N2c3ccc(C(=O)NCc4ccccc4Cl)cc3C3(CCS(=O)(=O)CC3)C2C2CC2)c1` (single isomer, unassigned) [Example 76.1, N-(2-chlorobenzyl)-1-[(3-cyanophenyl)sulfonyl]-2-cyclopropyl-1,2,2′,3′,5′,6′-hexahydrospiro[indole-3,4′-thiopyran]-5-carboxamide 1′,1′-dioxide], for which the IC50 was found to be 21 nM.

Regarding `N#Cc1cccc(S(=O)(=O)N2c3ccc(C(=O)NCc4ccccc4Cl)cc3C3(CCS(=O)(=O)CC3)C2C2CC2)c1` (single isomer, unassigned) [Example 76.2, N-(2-chlorobenzyl)-1-[(3-cyanophenyl)sulfonyl]-2-cyclopropyl-1,2,2′,3′,5′,6′-hexahydrospiro[indole-3,4′-thiopyran]-5-carboxamide 1′,1′-dioxide], the IC50 came to 689 nM.

Regarding `N#Cc1cccc(S(=O)(=O)N2c3ccc(C(=O)Nc4cncc(Cl)c4)cc3C3(CCS(=O)(=O)CC3)C2C2CC2)c1` (single isomer, unassigned) [Example 77.1, N-(5-chloropyridin-3-yl)-1-[(3-cyanophenyl)sulfonyl]-2-cyclopropyl-1,2,2′,3′,5′,6′-hexahydrospiro[indole-3,4′-thiopyran]-5-carboxamide 1′,1′-dioxide], the concentration for half-maximal inhibition (IC50) worked out at 54 nM.

For the molecule `N#Cc1cccc(S(=O)(=O)N2c3ccc(C(=O)Nc4cncc(Cl)c4)cc3C3(CCS(=O)(=O)CC3)C2C2CC2)c1` (single isomer, unassigned) [Example 77.2, N-(5-chloropyridin-3-yl)-1-[(3-cyanophenyl)sulfonyl]-2-cyclopropyl-1,2,2′,3′,5′,6′-hexahydrospiro[indole-3,4′-thiopyran]-5-carboxamide 1′,1′-dioxide], the IC50 stood at 963 nM.

As for `N#Cc1cccc(S(=O)(=O)N2c3ccc(C(=O)NCc4ncccc4C(F)(F)F)cc3C3(CCS(=O)(=O)CC3)C2C2CC2)c1` (single isomer, unassigned) [Example 79.1, 1-[(3-cyanophenyl)sulfonyl]-2-cyclopropyl-N-{[3-(trifluoromethyl)pyridin-2-yl]methyl}-1,2,2′,3′,5′,6′-hexahydrospiro[indole-3,4′-thiopyran]-5-carboxamide 1′,1′-dioxide], the IC50 turned out to be 54 nM.

Turning to `N#Cc1cccc(S(=O)(=O)N2c3ccc(C(=O)NCc4ncccc4C(F)(F)F)cc3C3(CCS(=O)(=O)CC3)C2C2CC2)c1` (single isomer, unassigned) [Example 79.2, 1-[(3-cyanophenyl)sulfonyl]-2-cyclopropyl-N-{[3-(trifluoromethyl)pyridin-2-yl]methyl}-1,2,2′,3′,5′,6′-hexahydrospiro[indole-3,4′-thiopyran]-5-carboxamide 1′,1′-dioxide], the IC50 came out at 1020 nM.

With `N#Cc1cccc(S(=O)(=O)N2c3ccc(C(=O)Nc4ccon4)cc3C3(CCS(=O)(=O)CC3)C2C2CC2)c1` (single isomer, unassigned) [Example 80.1, 1-[(3-cyanophenyl)sulfonyl]-2-cyclopropyl-N-(1,2-oxazol-3-yl)-1,2,2′,3′,5′,6′-hexahydrospiro[indole-3,4′-thiopyran]-5-carboxamide 1′,1′-dioxide], the IC50 is 315 nM.

For the molecule `N#Cc1cccc(S(=O)(=O)N2c3ccc(C(=O)Nc4ccon4)cc3C3(CCS(=O)(=O)CC3)C2C2CC2)c1` (single isomer, unassigned) [Example 80.2, 1-[(3-cyanophenyl)sulfonyl]-2-cyclopropyl-N-(1,2-oxazol-3-yl)-1,2,2′,3′,5′,6′-hexahydrospiro[indole-3,4′-thiopyran]-5-carboxamide 1′,1′-dioxide], the half-inhibitory concentration (IC50) is more than 20000 nM.

`COC(=O)c1cccc(NC(=O)c2ccc3c(c2)C2(CCS(=O)(=O)CC2)C(C2CC2)N3S(=O)(=O)c2cccc(OC(F)F)c2)c1` (single isomer, unassigned) [Example 89.1, methyl 3-{[(2-cyclopropyl-1-{[3-(difluoromethoxy)phenyl]sulfonyl}-1′,1′-dioxido-1,2,2′,3′,5′,6′-hexahydrospiro[indole-3,4′-thiopyran]-5-yl)carbonyl]amino}benzoate]: the IC50 was 63 nM.

For the molecule `COC(=O)c1cccc(NC(=O)c2ccc3c(c2)C2(CCS(=O)(=O)CC2)C(C2CC2)N3S(=O)(=O)c2cccc(OC(F)F)c2)c1` (single isomer, unassigned) [Example 89.2, methyl 3-{[(2-cyclopropyl-1-{[3-(difluoromethoxy)phenyl]sulfonyl}-1′,1′-dioxido-1,2,2′,3′,5′,6′-hexahydrospiro[indole-3,4′-thiopyran]-5-yl)carbonyl]amino}benzoate], the IC50 is more than 20000 nM.

On to `O=C(O)c1cccc(NC(=O)c2ccc3c(c2)C2(CCS(=O)(=O)CC2)C(C2CC2)N3S(=O)(=O)c2cccc(OC(F)F)c2)c1` (single isomer, unassigned) [Example 90.1, 3-{[(2-cyclopropyl-1-{[3-(difluoromethoxy)phenyl]sulfonyl}-1′,1′-dioxido-1,2,2′,3′,5′,6′-hexahydrospiro[indole-3,4′-thiopyran]-5-yl)carbonyl]amino}benzoic acid], for which the 50% inhibitory concentration (IC50) is 41 nM.
